Measured values taken from US7189732B2, “Pyrido[2,3-d]pyrimidine dichloro-phenyl derivatives” (Hoffman-La Roche Inc., priority 2004, dated 2007).

Key:
Src (p60^c-src) = molecular target: T1, Src (p60^c-src) (Homo sapiens, UniProt P12931); assay: SRC-Inhibitor-Assay, time-resolved fluorescence kinase assay (Src); assay type: biochemical; conditions: ATP 5 μM; peptide 10 μM; enzyme 2.5 U/ml; pre-incubated 15 min at 15° C.
T1 construct: purchased Upstate Biotechnology, Inc., Lake Placid, N.Y. (UBI)
From the text: (§1) The activity of the compounds according to this invention as inhibitors for the src-family tyrosine kinases was shown by using the following assay. As used herein Ro refers to the peptide: NH2-A-E-E-E-I-Y-G-E-F-E-A-K-K-K-K-CONH2(SEQ ID NO: 1); Ja133-Ro refers to the peptide: Ja133-G-Aminocaprylic acid-A-E-E-E-I-Y-G-E-F-E-A-K-K-K-K-CONH2(SEQ ID NO: 2), wherein Ja133 is LightCycler-Red 640-N-hydroxy succinimide ester; PT66 refers to a phosphotyrosine specific antibody which can detect the phoyphorylated tyrosine of protein tyrosine kinase; and TCEP refers to Tris(2-carboxyethyl)phosphine; Lck Cisbio Mab PT66-K refers to Anti-Phosphotyrosine (PT66)-Cryptate; and Src EG&G Wallac PT66 Eu-W1024 refers to Eu^3+-labelled Anti-Phosphotyrosine (PT66)-Cryptate.
(§2) whereby both peptides were synthesized by an optimized solid phase peptide synthesis protocol (Merrifield, Fed. Proc. Fed. Amer. Soc. Exp. Biol. 21(1962) 412) on a Zinsser SMP350 peptide synthesizer. Shortly, the peptide was assembled on 160 mg (22.8 μmol scale) of a Rink-Linker modified polystyrene solid phase by repeatedly conjugating an twenty fold excess of amino acids each protected by temporary piperidine labile Fmoc- and permanent acid labile tert-Bu-, BOC- and tert-BuO-groups depending on the side chain function. The substrate sequence AEEEIYGEFEAKKKK (SEQ ID NO: 1) was N-terminal additionally mounted with the spacer amino acids Aminocaprylic acid and Glycin. After cleavage of the N-terminal temporary protecting group the still attached and protected peptide was labeled with a 1.5 fold amount of LightCycler-Red 640-N-hydroxy succinimide ester (purchased by Roche Diagnostics GmbH) and triethylamine. After 3 hrs. the resin was washed with Dimethylformamide and Isopropanol until the eluates of the blue resin got colorless. […] The substrate was finally isolated by a preparative reverse phase HPLC purification. The purification yielded 12.2 mg RP-HPLC single peak pure blue material (lyophilisate). The identity was proven by Matrix Assisted Laser Desorption Ionization (MALDI) mass spectroscopy [2720.0]. Enzymes: Upstate Lck (p56^lck, active), Upstate Src (p60^c-src, partially purified) were purchased from Upstate Biotechnology, Inc., Lake Placid, N.Y. (UBI). Time-resolved Fluorescence Assay: Reader: Perkin Elmer, Wallac Viktor 1420-040 multilabel counter; Liquid handling system: Beckman Coulter, Biomek 2000. ATP, Tween 20, HEPES were purchased from Roche Molecular Biochemicals, MgCl2 and MnCl2 were purchased from Merck Eurolab, TCEP was purchased from Pierce, 384 Well low volume fluorescence plates was purchased from Falcon. Assay Description:
(§3) At first the enzyme is pre-incubated for 15 min. at 15° C. in aqueous solution with corresponding amounts of inhibitors according to this invention. Then the phosphorylation reaction is started by adding a reaction mixture, containing ATP, Peptide and PT66, and subsequent shaking. The proceeding of this reaction is immediately monitored using time resolved fluorescence spectroscopy in a suitable well plate reader.
(§4) The IC50-values can be obtained from the reaction rates by using a non-linear curve fit (EXCELFIT software, from ID Business Solution Ltd., Guilford, Surrey, UK).

Lck (p56^lck) = molecular target: T2, Lck (p56^lck) (Homo sapiens, UniProt P06239); assay: SRC-Inhibitor-Assay, time-resolved fluorescence kinase assay (Lck); assay type: biochemical; conditions: ATP 5 μM; peptide 10 μM; enzyme 2.5 U/ml; pre-incubated 15 min at 15° C.
T2 construct: purchased Upstate Biotechnology, Inc., Lake Placid, N.Y. (UBI)
From the text: as §1, §2, §3, §4

T1 sequence (P12931 whole entry): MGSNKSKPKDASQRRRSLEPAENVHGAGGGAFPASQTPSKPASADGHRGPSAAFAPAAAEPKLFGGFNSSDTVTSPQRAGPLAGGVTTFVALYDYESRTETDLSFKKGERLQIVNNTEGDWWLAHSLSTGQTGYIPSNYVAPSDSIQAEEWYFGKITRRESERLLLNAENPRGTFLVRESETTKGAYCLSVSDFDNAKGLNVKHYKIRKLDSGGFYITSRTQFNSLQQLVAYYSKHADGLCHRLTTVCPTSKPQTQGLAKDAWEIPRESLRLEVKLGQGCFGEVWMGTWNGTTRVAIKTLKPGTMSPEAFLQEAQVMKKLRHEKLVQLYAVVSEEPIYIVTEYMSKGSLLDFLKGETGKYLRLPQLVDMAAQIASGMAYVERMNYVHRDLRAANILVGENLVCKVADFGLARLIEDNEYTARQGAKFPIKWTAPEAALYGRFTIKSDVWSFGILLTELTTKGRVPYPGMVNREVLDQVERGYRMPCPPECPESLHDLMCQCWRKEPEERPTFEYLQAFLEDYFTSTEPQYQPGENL
T2 sequence (P06239 whole entry, species assumed): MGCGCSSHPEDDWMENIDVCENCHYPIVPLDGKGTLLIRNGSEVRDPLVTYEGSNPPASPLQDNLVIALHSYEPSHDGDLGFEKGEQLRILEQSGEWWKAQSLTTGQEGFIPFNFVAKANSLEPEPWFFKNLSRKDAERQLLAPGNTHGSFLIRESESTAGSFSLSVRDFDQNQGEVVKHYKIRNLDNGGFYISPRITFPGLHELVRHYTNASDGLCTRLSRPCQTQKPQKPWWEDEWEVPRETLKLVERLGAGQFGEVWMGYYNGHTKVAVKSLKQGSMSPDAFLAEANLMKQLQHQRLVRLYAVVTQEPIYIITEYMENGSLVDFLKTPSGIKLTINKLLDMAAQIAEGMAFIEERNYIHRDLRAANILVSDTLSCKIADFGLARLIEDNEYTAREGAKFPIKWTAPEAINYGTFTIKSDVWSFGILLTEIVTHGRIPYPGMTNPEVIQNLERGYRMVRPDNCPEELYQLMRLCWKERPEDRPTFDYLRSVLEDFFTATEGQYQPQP

IC50 (Src (p60^c-src)) | IC50 (Lck (p56^lck)) | Structure (SMILES)
0.4 nM | 1.7 nM | O=C(NC[C@H]1CCCN1)c1nc2nc(Nc3ccc(N4CCOCC4)cc3)ncc2cc1-c1c(Cl)cccc1Cl [Example 1, 6-(2,6-Dichloro-phenyl)-2-(4-morpholin-4-yl-phenylamino)-pyrido[2,3-d]pyrimidine-7-carboxylic acid ((R)-1-pyrrolidin-2-ylmethyl)-amide]
0.3 nM | 1 nM | CN1CCN(c2ccc(Nc3ncc4cc(-c5c(Cl)cccc5Cl)c(C(=O)NCCNS(C)(=O)=O)nc4n3)cc2)CC1 [Example 2, 6-(2,6-Dichloro-phenyl)-2-[4-(4-methyl-piperazin-1-yl)-phenylamino]-pyrido[2,3-d]pyrimidine-7-carboxylic acid (2-methanesulfonylamino-ethyl)-amide]
0.7 nM | 2 nM | CS(=O)(=O)NCCNC(=O)c1nc2nc(Nc3cccc(SCCO)c3)ncc2cc1-c1c(Cl)cccc1Cl [Example 3, 6-(2,6-Dichloro-phenyl)-2-[3-(2-hydroxy-ethylsulfanyl)-phenylamino]-pyrido[2,3-d]pyrimidine-7-carboxylic acid (2-methanesulfonylamino-ethyl)-amide]
1.7 nM | 6.4 nM | N#Cc1nc2nc(Nc3ccc(OCCO)cc3)ncc2cc1-c1c(Cl)cccc1Cl [Example 4, 6-(2,6-Dichloro-phenyl)-2-[4-(2-hydroxy-ethoxy)-phenylamino]-pyrido[2,3-d]pyrimidine-7-carbonitrile]
2.2 nM | 7.6 nM | NC(=O)c1nc2nc(Nc3ccc(OCCO)cc3)ncc2cc1-c1c(Cl)cccc1Cl [Example 5, 6-(2,6-Dichloro-phenyl)-2-[4-(2-hydroxy-ethoxy)-phenylamino]-pyrido[2,3-d]pyrimidine-7-carboxylic acid amide]
5.4 nM | 8.2 nM | O=C(NCCO)c1nc2nc(Nc3ccc(OCCO)cc3)ncc2cc1-c1c(Cl)cccc1Cl [Example 6-1, 6-(2,6-Dichloro-phenyl)-2-[4-(2-hydroxy-ethoxy)-phenylamino]-pyrido[2,3-d]pyrimidine-7-carboxylic acid (2-hydroxy-ethyl)-amide]
1.8 nM | 4.1 nM | O=C(NCCO)c1nc2nc(Nc3ccc(N4CCOCC4)cc3)ncc2cc1-c1c(Cl)cccc1Cl [Example 6-2, 6-(2,6-Dichloro-phenyl)-2-(4-morpholin-4-yl-phenylamino)-pyrido[2,3-d]pyrimidine-7-carboxylic acid (2-hydroxy-ethyl)-amide]
0.9 nM | 1.5 nM | CS(=O)(=O)NCCNC(=O)c1nc2nc(Nc3ccc(N4CCOCC4)cc3)ncc2cc1-c1c(Cl)cccc1Cl [Example 6-3, 6-(2,6-Dichloro-phenyl)-2-(4-morpholin-4-yl-phenylamino)-pyrido[2,3-d]pyrimidine-7-carboxylic acid (2-methanesulfonylamino-ethyl)-amide]
1.1 nM | 1.6 nM | CS(=O)(=O)NCCNC(=O)c1nc2nc(Nc3ccc(OCCO)cc3)ncc2cc1-c1c(Cl)cccc1Cl [Example 6-4, 6-(2,6-Dichloro-phenyl)-2-[4-(2-hydroxy-ethoxy)-phenylamino]-pyrido[2,3-d]pyrimidine-7-carboxylic acid (2-methanesulfonylamino-ethyl)-amide]
0.6 nM | 1.7 nM | O=C(NC[C@H]1CCCN1)c1nc2nc(Nc3ccc(OCCO)cc3)ncc2cc1-c1c(Cl)cccc1Cl [Example 6-5, 6-(2,6-Dichloro-phenyl)-2-[4-(2-hydroxy-ethoxy)-phenylamino]-pyrido[2,3-d]pyrimidine-7-carboxylic acid ((R)-1-pyrrolidin-2-ylmethyl)-amide]
0.2 nM | 1.3 nM | CS(=O)(=O)NCCNC(=O)c1nc2nc(Nc3cccc(NS(C)(=O)=O)c3)ncc2cc1-c1c(Cl)cccc1Cl [Example 6-6, 6-(2,6-Dichloro-phenyl)-2-(3-methanesulfonylamino-phenylamino)-pyrido[2,3-d]pyrimidine-7-carboxylic acid (2-methanesulfonylamino-ethyl)-amide]
2.5 nM | 9.9 nM | CSc1cccc(Nc2ncc3cc(-c4c(Cl)cccc4Cl)c(C(=O)NCCNS(C)(=O)=O)nc3n2)c1 [Example 6-7, 6-(2,6-Dichloro-phenyl)-2-(3-methylsulfanyl-phenylamino)-pyrido[2,3-d]pyrimidine-7-carboxylic acid (2-methanesulfonylamino-ethyl)-amide]
4.7 nM | 7.8 nM | Cc1ccc(Nc2ncc3cc(-c4c(Cl)cccc4Cl)c(C(=O)NCCNS(C)(=O)=O)nc3n2)cn1 [Example 6-8, 6-(2,6-Dichloro-phenyl)-2-(6-methyl-pyridin-3-ylamino)-pyrido[2,3-d]pyrimidine-7-carboxylic acid (2-methanesulfonylamino-ethyl)-amide]
0.5 nM | 2.7 nM | CCN(CC)CCOc1ccc(Nc2ncc3cc(-c4c(Cl)cccc4Cl)c(C#N)nc3n2)cc1 [Example 7-1, 6-(2,6-Dichloro-phenyl)-2-[4-(2-diethylamino-ethoxy)-phenylamino]-pyrido[2,3-d]pyrimidine-7-carbonitrile]
1.3 nM | 11.7 nM | N#Cc1nc2nc(Nc3ccc(N4CCOCC4)cc3)ncc2cc1-c1c(Cl)cccc1Cl [Example 7-2, 6-(2,6-Dichloro-phenyl)-2-(4-morpholin-4-yl-phenylamino)-pyrido[2,3-d]pyrimidine-7-carbonitrile]
1 nM | 3.7 nM | NC(=O)c1nc2nc(Nc3ccc(N4CCOCC4)cc3)ncc2cc1-c1c(Cl)cccc1Cl [Example 8-1, 6-(2,6-Dichloro-phenyl)-2-(4-morpholin-4-yl-phenylamino)-pyrido[2,3-d]pyrimidine-7-carboxylic acid amide]
